From PubChem BioAssay AID623988 (Vanderbilt High Throughput Screening Facility, 2012)

Biological target: Voltage-gated inwardly rectifying potassium channel KCNH2 (Homo sapiens) (UniProt Q12809)
Assay: KCNH2 potassium channel blockade – cell-based, thallium flux, concentration-response, selectivity assay for GIRK activator project, dose response (AID 623988)
Settings: hERG-expressing HEK293 cells, thallium flux fluorescence

Chain of Voltage-gated inwardly rectifying potassium channel KCNH2 (Homo sapiens) (Q12809 whole entry, looked up): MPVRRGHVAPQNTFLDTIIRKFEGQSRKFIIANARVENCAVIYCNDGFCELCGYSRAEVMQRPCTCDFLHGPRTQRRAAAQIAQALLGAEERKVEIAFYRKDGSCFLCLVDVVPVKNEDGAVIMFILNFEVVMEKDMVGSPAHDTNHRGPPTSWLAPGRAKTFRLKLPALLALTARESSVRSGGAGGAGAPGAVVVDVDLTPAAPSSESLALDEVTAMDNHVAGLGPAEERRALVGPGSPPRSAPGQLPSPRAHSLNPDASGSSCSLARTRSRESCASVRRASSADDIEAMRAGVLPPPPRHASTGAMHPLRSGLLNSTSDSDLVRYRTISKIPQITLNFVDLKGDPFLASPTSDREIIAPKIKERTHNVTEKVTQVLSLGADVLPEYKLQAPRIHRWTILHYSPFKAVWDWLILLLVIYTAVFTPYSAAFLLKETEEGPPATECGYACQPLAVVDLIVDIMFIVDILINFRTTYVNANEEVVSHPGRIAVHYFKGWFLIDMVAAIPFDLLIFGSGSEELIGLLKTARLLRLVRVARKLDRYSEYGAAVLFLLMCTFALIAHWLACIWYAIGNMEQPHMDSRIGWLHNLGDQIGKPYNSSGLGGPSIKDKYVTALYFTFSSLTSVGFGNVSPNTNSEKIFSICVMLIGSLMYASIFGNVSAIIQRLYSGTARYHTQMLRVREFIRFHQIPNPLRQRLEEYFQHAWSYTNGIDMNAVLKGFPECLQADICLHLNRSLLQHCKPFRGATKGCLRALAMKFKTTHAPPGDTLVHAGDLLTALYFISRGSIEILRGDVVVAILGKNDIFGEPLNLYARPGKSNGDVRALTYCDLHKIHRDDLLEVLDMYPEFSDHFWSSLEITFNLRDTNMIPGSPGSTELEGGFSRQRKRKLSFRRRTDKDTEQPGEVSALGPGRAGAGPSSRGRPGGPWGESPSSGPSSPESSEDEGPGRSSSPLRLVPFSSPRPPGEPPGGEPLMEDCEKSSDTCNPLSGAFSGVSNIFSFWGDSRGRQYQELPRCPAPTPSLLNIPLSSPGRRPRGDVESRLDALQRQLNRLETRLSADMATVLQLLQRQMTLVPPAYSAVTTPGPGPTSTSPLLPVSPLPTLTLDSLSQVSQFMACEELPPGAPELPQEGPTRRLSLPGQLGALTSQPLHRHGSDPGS

Compound: Cc1cc(NC(=O)Nc2ccc(F)c(F)c2)n(-c2ccccc2)n1
- IC50: 10.8 µM
